Measured values reported in patent US20080075677A1, “Antioxidant Complex and a Cosmetic and Pharmaceutical Composition Comprising Said Complex” (priority 2004, published 2008).

Test: DPPH free-radical test of antioxidant potential
Type: biochemical
Excerpt: Objective: analyzing the antioxidant potential of the complex of the present invention in comparison with other known antioxidant system compositions. A solution of 0.004% of DPPH (diphenyl […] hydrazyl) in ethanol was used. The action of DPPH on ethanol generates free radicals, forming colorful aducts, which are spectrophotometrically detected. Further, a solution of BHT in ethanol was used and its solutions described in the table below. Tubes with the DPPH solution and the compositions of the above products were prepared.

**Q.** With `O=C1O[C@H]([C@@H](O)CO)C(O)=C1O` [vitamin C, ascorbic acid] as the compound, how does the “effect of vitamin C on the potential of the antioxidant complex at determined concentrations” value (at determined concentrations of vitamin C) read?
**A.** causes reduction of said potential

**Q.** What about the “effect of the presence of vitamin C on the potential of the antioxidant complex” value (vitamin C added to the antioxidant complex composition) of the same compound?
**A.** does not improve the potential
